According to ChEMBL document CHEMBL1800035, “An optimized immunoaffinity fluorescent method for natural product target elucidation” (J Nat Prod, 2010):
Calls of active or inactive are those of the source. The rule behind the calls is not given here.

Columns and labels:
HeLa [1] = assay: Drug uptake in human HeLa cells assessed as subcellular localization in endoplasmic reticulum at 10 uM after 6 hrs using blue-fluorescent IAF-tagged streptavidin staining by live cell microscopic analysis; format: ADME, cell-based
HeLa [2] = assay: Drug uptake in human HeLa cells assessed as subcellular localization in endoplasmic reticulum at 10 uM after 6 hrs using blue-fluorescent IAF-tagged streptavidin staining by live cell microscopic analysis presence of glycyrrhetic acid; format: ADME, cell-based
[3] = Binding affinity to mouse IAF-labeled immunoglobulin G mAb by immunoaffinity fluorescent method
[4] = biological target: T1, Protein kinase C eta type (Homo sapiens, UniProt P24723); assay: Binding affinity to recombinant human PKCeta in after 2 hrs by microequilibrium dialysis assay
T1 sequence (P24723 whole entry): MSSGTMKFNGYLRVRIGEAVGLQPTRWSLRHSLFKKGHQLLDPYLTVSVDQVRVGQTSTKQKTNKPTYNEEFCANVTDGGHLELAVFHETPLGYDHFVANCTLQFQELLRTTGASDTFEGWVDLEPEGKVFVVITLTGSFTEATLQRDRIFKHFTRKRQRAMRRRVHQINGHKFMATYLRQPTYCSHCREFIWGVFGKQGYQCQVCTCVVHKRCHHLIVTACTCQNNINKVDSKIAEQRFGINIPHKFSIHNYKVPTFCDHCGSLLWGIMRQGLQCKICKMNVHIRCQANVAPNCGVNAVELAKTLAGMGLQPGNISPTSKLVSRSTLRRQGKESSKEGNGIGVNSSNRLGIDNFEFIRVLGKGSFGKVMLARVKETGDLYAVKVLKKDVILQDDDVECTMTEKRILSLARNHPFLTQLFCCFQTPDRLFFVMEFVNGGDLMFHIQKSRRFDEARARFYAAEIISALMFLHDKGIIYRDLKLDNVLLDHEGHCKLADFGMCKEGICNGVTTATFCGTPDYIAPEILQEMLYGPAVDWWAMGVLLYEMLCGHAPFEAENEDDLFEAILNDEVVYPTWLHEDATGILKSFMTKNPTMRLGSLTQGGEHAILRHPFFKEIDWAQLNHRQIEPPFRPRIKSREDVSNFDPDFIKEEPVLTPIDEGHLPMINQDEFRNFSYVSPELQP

[5] = biological target: T1, Protein kinase C eta type; assay: Binding affinity to PKCeta in human HeLa cell lysates at 10 nM to 100 uM after 2 hrs by immunoprecipitation analysis
HeLa [6] = assay: Drug uptake in human HeLa cells assessed as subcellular localization in endoplasmic reticulum at 25 uM after 6 hrs by live cell microscopic analysis; format: ADME, cell-based

Row | Structure (SMILES) | Drug uptake (HeLa [1]) | Kd [4] [µM] | Activity [5] | other results
1 | CN(C)c1ccc2c(CC(=O)NCCNC(=O)[C@@]3(C)CC[C@]4(C)CC[C@]5(C)C(=CC(=O)[C@@H]6[C@@]7(C)CC[C@H](O)C(C)(C)[C@@H]7CC[C@]65C)[C@@H]4C3)cc(=O)oc2c1 | Active | 0.64 | – | Drug uptake (HeLa [2]): Not Active; Kd [3]: 0.54 µM
2 | CC1(C)[C@@H](O)CC[C@]2(C)[C@H]3C(=O)C=C4[C@@H]5C[C@@](C)(C(=O)NCCN=[N+]=[N-])CC[C@]5(C)CC[C@@]4(C)[C@]3(C)CC[C@@H]12 | – | – | inactive | –
3 | CC1(C)[C@@H](O)CC[C@]2(C)[C@H]3C(=O)C=C4[C@@H]5C[C@@](C)(C(=O)NCCNC(=O)CCCC[C@@H]6SC[C@@H]7NC(=O)N[C@@H]76)CC[C@]5(C)CC[C@@]4(C)[C@]3(C)CC[C@@H]12 | Not Active | – | – | –
4 | C#CCNC(=O)Cc1cc(=O)oc2cc(N(C)C)ccc12 | – | – | inactive | –
5 | CC1(C)[C@@H](O)CC[C@]2(C)[C@H]3C(=O)C=C4[C@@H]5C[C@@](C)(C(=O)O)CC[C@]5(C)CC[C@@]4(C)[C@]3(C)CC[C@@H]12 [ENOXOLONE] | – | 0.25 | – | Drug uptake (HeLa [6]): Active
